Assay results published in ChEMBL document CHEMBL1201862, “PubChem BioAssay data set” (2004).
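Following 48 hours of exposure in 96-well plates, responses at five concentrations were used to interpolate endpoints linearly. GI50 = concentration required for 50% inhibition of growth.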 The source made the active and inactive calls. Cut-off read from the data, not from the text of the source: active = GI50 up to about 1.1 µM and inactive = higher.

Columns and labels:
Test in all cases: inhibition of tumour cell growth, NCI panel, 48 h
UO-31 = tested on: UO-31
Malme-3M = tested on: Malme-3M
KM12 = tested on: KM12
ACHN = tested on: ACHN
HCT-15 = tested on: HCT-15
SK-MEL-28 = tested on: SK-MEL-28
M14 = tested on: M14
MDA-MB-435 = tested on: MDA-MB-435
UACC-257 = tested on: UACC-257
SN12C = tested on: SN12C
SK-MEL-2 = tested on: SK-MEL-2
SF-268 = tested on: SF-268
SF-539 = tested on: SF-539
NCI-H23 = tested on: NCI-H23
IGROV-1 = tested on: IGROV-1
LOX IMVI = tested on: LOX IMVI
HT-29 = tested on: HT-29
HOP-92 = tested on: HOP-92
MDA-N = tested on: MDA-N

Compound | GI50 (UO-31) | GI50 (Malme-3M) | GI50 (KM12) | GI50 (ACHN) | GI50 (HCT-15) [µM] | GI50 (SK-MEL-28) | GI50 (M14) | GI50 (MDA-MB-435) | GI50 (UACC-257) | GI50 (SN12C) | GI50 (SK-MEL-2) | GI50 (SF-268) | GI50 (SF-539) | GI50 (NCI-H23) | GI50 (IGROV-1) | GI50 (LOX IMVI) | GI50 (HT-29) | GI50 (HOP-92) | GI50 (MDA-N)
COC(=O)C1=C(C(=O)OC)SC(=C2S[C@@H]3[C@@H]4C[C@H]([C@@H]3S2)[C@H]2C(=O)OC(=O)[C@@H]42)S1 | > 100 µM (inactive) | > 100 µM (inactive) | > 100 µM (inactive) | > 100 µM (inactive) | > 100 | > 100 µM (inactive) | > 100 µM (inactive) | > 100 µM (inactive) | > 100 µM (inactive) | > 100 µM (inactive) | > 100 µM (inactive) | > 100 µM (inactive) | > 100 µM (inactive) | > 100 µM (inactive) | > 100 µM (inactive) | > 100 µM (inactive) | > 100 µM (inactive) | > 100 µM (inactive) | –
CCCCCCCCCc1c(O)c(O)c(CCCCCCCCC)c(CCCCCCCCC)c1CCCCCCCCC | – | 96.8 µM (inactive) | > 100 µM (inactive) | > 100 µM (inactive) | > 100 | > 100 µM (inactive) | > 100 µM (inactive) | 47.2 µM (inactive) | > 100 µM (inactive) | > 100 µM (inactive) | > 100 µM (inactive) | > 100 µM (inactive) | > 100 µM (inactive) | > 100 µM (inactive) | > 100 µM (inactive) | > 100 µM (inactive) | > 100 µM (inactive) | – | 50.6 µM (inactive)
N#CCc1nc(-c2ccccc2)n[nH]1 | > 100 µM (inactive) | > 100 µM (inactive) | > 100 µM (inactive) | > 100 µM (inactive) | > 100 | – | > 100 µM (inactive) | > 100 µM (inactive) | > 100 µM (inactive) | > 100 µM (inactive) | > 100 µM (inactive) | > 100 µM (inactive) | > 100 µM (inactive) | > 100 µM (inactive) | > 100 µM (inactive) | > 100 µM (inactive) | > 100 µM (inactive) | – | > 100 µM (inactive)
c1ccc2c(c1)OC(N1CCCC1)c1cnc(N3CCOCC3)nc1-2 (stereo not given) | 19.3 µM (inactive) | 21.9 µM (inactive) | > 100 µM (inactive) | 38.2 µM (inactive) | 45.4 | > 100 µM (inactive) | 57.8 µM (inactive) | 67 µM (inactive) | 25.2 µM (inactive) | 32 µM (inactive) | – | 40.6 µM (inactive) | > 100 µM (inactive) | 15.8 µM (inactive) | – | 54.3 µM (inactive) | 53.6 µM (inactive) | 16.8 µM (inactive) | –
CN1CCN(C(=O)CCC(=O)Nc2cc3c(c4ccccc24)-c2ccc4ccccc4c2C3)CC1 | 1.65 µM (inactive) | 2.03 µM (inactive) | 1.55 µM (inactive) | 2.12 µM (inactive) | 1.82 | 1.79 µM (inactive) | 1.45 µM (inactive) | 1.51 µM (inactive) | 1.74 µM (inactive) | 1.79 µM (inactive) | 1.97 µM (inactive) | 1.8 µM (inactive) | 1.73 µM (inactive) | 1.97 µM (inactive) | 1.15 µM (inactive) | 1.77 µM (inactive) | 1.72 µM (inactive) | 1.73 µM (inactive) | –
CC(C)N/C(=N\C#N)NS(=O)(=O)c1cnccc1Nc1ccc(Cl)cc1 | > 100 µM (inactive) | > 100 µM (inactive) | > 100 µM (inactive) | > 100 µM (inactive) | > 100 | > 100 µM (inactive) | > 100 µM (inactive) | > 100 µM (inactive) | > 100 µM (inactive) | > 100 µM (inactive) | > 100 µM (inactive) | > 100 µM (inactive) | – | > 100 µM (inactive) | > 100 µM (inactive) | – | > 100 µM (inactive) | – | > 100 µM (inactive)
O=c1/c(=C\c2ccccc2)sc2n1C(c1ccccc1)C1(O)CCCCC1N=2 (stereo not given) | 44.2 µM (inactive) | > 100 µM (inactive) | – | 87.9 µM (inactive) | > 100 | > 100 µM (inactive) | > 100 µM (inactive) | > 100 µM (inactive) | > 100 µM (inactive) | > 100 µM (inactive) | 62.1 µM (inactive) | > 100 µM (inactive) | – | 56.9 µM (inactive) | > 100 µM (inactive) | > 100 µM (inactive) | > 100 µM (inactive) | – | > 100 µM (inactive)
CS/C(=N\C#N)S/C=C/C(=O)c1ccc(Cl)cc1 | 18.3 µM (inactive) | 26.4 µM (inactive) | 45.7 µM (inactive) | 34.4 µM (inactive) | 30.2 | 20.6 µM (inactive) | 22.3 µM (inactive) | 24.9 µM (inactive) | 20.9 µM (inactive) | 26.2 µM (inactive) | 17.6 µM (inactive) | 22.5 µM (inactive) | 20.8 µM (inactive) | 24.9 µM (inactive) | 18.3 µM (inactive) | – | 21.8 µM (inactive) | 88.5 µM (inactive) | –
